Molecules are shown by their SMILES.

This experiment relates to HIV-1. The experiment in a line: Inhibition of HIV-1 production (p24 antigen) in infected peripheral blood mononuclear cells (PBMCs). The conditions noted are these: tested molecules at 10 μM; p24 after 3 and 6 days of infection; number of donors with inhibition out of donors tested. The format is cell-based, HIV-1 (AdaM) in PBMCs of healthy donors. As to the method:
Within this framework, the peripheral blood mononuclear cells (PBMCs) of healthy donors are isolated by centrifugation on a FICOLL gradient. The cells are then cultivated to a density of 2.5×10^6 cells/ml with RPMI medium supplemented with 1% inactivated human AB serum, then incubated at 37° C., 5% CO2 for an additional hour. The peripheral blood mononuclear cells are then recovered and cultivated for two days in RPMI medium supplemented with 10% fetal calf serum.
A standard experiment using 96 plates to test 30 molecules in triplicates including positive and negative controls, is performed as follows:
50 10^6 Ficoll purified PBMCs (10% DMSO 90% FCS) are washed with RPMI 10% FCS and resuspended in 25 ml of RPMI 10% FCS, glutamax containing 1000 U/ml of IL2 and 5 μg/ml PHA. The cells are then incubated for 3 days at 37° C. before to be washed with 50 ml PBS then with 50 ml RPMI 10% FCS. The cells are resuspended in 100 μl of RPMI 10% FCS containing 100 U/ml IL2 and seeded in 96 wells (1.5 10^5 cells/well). Viral infection is performed with 1 ng of AdaM/well. 100 μl of tested molecules at concentration of 10 μM are added to each well. Virus production is determined by p24 antigen immunosorbent assays after 3 and 6 days of infection (Kit Innogenetics). Typically PBMCs are prepared from several healthy donors (around 11 different donors). Dose response curves were then established with selected compounds to determine IC50.
On to `Cc1ccnc(Nc2cnc3ccccc3n2)c1[N+](=O)[O-]` [Compound 141, N-(4-methyl-3-nitropyridin-2-yl)quinoxalin-2-amine], for which the “Inhibition of p24 production in HIV infected PBMCs from different donors” value is on record as 4 out of 4 donnors. `CCc1cccc(Nc2ccc3cccc(Cl)c3n2)n1` [Compound 50, 8-chloro-N-(6-ethylpyridin-2-yl)quinolin-2-amine]: the “Inhibition of p24 production in HIV infected PBMCs from different donors” value was 4 out of 4 donnors. In the case of `COc1ccc(Nc2nc3ccccc3cc2C)cc1` [Compound 79, N-(4-methoxyphenyl)-3-methylquinolin-2-amine] it was 7 out of 8 donnors; in that of `Cc1cc2ccccc2nc1Nc1ccc(C(F)(F)F)cn1` [Compound 74, 3-methyl-N-[5-(trifluoromethyl)pyridin-2-yl]quinolin-2-amine], 4 out of 4 donnors; in that of `Cc1ccnc(Nc2nc3ccccc3nc2C(F)(F)F)c1` [Compound 139, N-(4-methylpyridin-2-yl)-3-(trifluoromethyl)quinoxalin-2-amine], 4 out of 4 donnors.
